Experimental data reported in the NIST ThermoML archive (doi:10.1016/j.jct.2018.03.007).

Experiment: xn = mol fraction of the nth substance listed
Conditions: 100 kPa, Liquid; for speed of sound: Frequency=2 MHz, Linear variable-path acoustic interferometer; for mass density: Vibrating tube method

CCn1cc[n+](C)c1.O=S(=O)([O-])O [1-ethyl-3-methylimidazolium hydrogen sulfate] + C[S+](C)[O-]
Conditions | mass density, 298.15 K [kg/m3] | mass density, 303.15 K [kg/m3] | mass density, 308.15 K [kg/m3] | mass density, 313.15 K [kg/m3] | speed of sound, 298.15 K [m/s] | speed of sound, 303.15 K [m/s] | speed of sound, 308.15 K [m/s] | speed of sound, 313.15 K [m/s]
x1 = 0.0494 | 1128.82 | 1124.11 | 1119.4 | 1114.68 | 1530.5 | 1513.4 | 1495.9 | 1478.6
x1 = 0.1349 | 1175.73 | 1171.37 | 1166.99 | 1162.54 | 1600.5 | 1582.9 | 1564.8 | 1547
x1 = 0.2377 | 1219.12 | 1214.91 | 1210.85 | 1206.72 | 1672.7 | 1654.4 | 1635.9 | 1617.6
x1 = 0.3638 | 1259.43 | 1255.51 | 1251.66 | 1247.85 | 1746.9 | 1728.2 | 1709.3 | 1690.5
x1 = 0.5219 | 1297.19 | 1293.61 | 1290.03 | 1286.51 | 1823.3 | 1804.2 | 1784.9 | 1765.7
x1 = 0.6517 | 1320.97 | 1317.58 | 1314.21 | 1310.9 | 1875.5 | 1856.1 | 1836.6 | 1817.1
x1 = 0.7261 | 1332.42 | 1329.14 | 1325.9 | 1322.64 | 1902 | 1882.4 | 1862.8 | 1843.2
x1 = 0.8081 | 1343.71 | 1340.51 | 1337.32 | 1334.1 | 1928.7 | 1909 | 1889.3 | 1869.6
x1 = 0.9182 | 1357.03 | 1353.89 | 1350.73 | 1347.61 | 1961 | 1941.2 | 1921.5 | 1901.6
x1 = 1 | 1365.75 | 1362.62 | 1359.53 | 1356.41 | 1982.8 | 1962.9 | 1943.1 | 1923.2
